Data published in patent publication US9073856B2, “Phenyl methanesulfonamide derivatives useful as MGAT-2 inhibitors” (Eli Lilly and Company, priority 2012, dated 2015).
pIC50: −log10 of the molar value. Counter-ions that a name gives are not always drawn.

Tests used:
human MGAT-2 [1] = target: T1, human MGAT-2 (Homo sapiens, UniProt Q3SYC2); test: MGAT-2 Cell Assay (Caco-2 cells stably transfected with human MGAT-2, HDG substrate, LC-MS); assay type: cell-based; settings: HDG/DOPC
Experimental: The inhibitory activity of compounds against human MGAT-2 in a cell environment is evaluated in this assay. Caco-2 is a human colon carcinoma cell line and is often used as a model for intestinal epithelial cells. […] A MAG analogue, 2-O-Hexadecylglycerol (HDG), is utilized to detect cellular MGAT-2 activity, because HDG is not be hydrolyzed and the resulting product is readily monitored by mass spectrometry. The substrate is delivered to cells using phospholipid vesicles.
Seed the Caco2 cells onto 100 mm dishes to be 80% confluent after 24 hours in complete media (3/1 DMEM: F12+10% FBS+20 mM HEPES+gentamicin). Transfect the cells with hMGAT-2 plasmid (MGAT-2-pCDNA3.1-Hygro) using Lipofectamine 2000 (Invitrogen). After a 6 hour exposure to the transfection mixture, wash the cells 3× in PBS and then add media. Incubate the cells for an additional 18 hours incubation, trypsinize the cells and serially dilute them into 100 mm dishes. Added complete media+400 μg/ml hygromycin and incubate until clones appear. Isolate and transfer the clones into 24 well dishes and grow to confluency. Prepare the RNAs from these clones using a Qiagen RNAeasy kit. Perform Taqman analysis using an ABI inventoried assay (HS00228262) on a 7900 Sequence Detection System (ABI). Analyze the lysates from these clones western blot analysis using a goat polyclonal antibody (Santa Cruz, SC-32392 to confirm human MGAT-2 expression of a 38 Kdal protein corresponding to MGAT-2.
Mix 2-O-hexadecylglycerol (“HDG”, Biosynth Chemistry & Biology, # H-1806, 562.7 μl of 20 mg/ml) and DOPC (14.3 ml of 20 mg/ml) in a glass tube; dry first under N2 gas; and then under vacuum for additional 30 minutes. Add 20 ml of buffer (150 mM Tris-Cl pH 7.4, 250 mM Sucrose, 1 mM EDTA) to the dried HDG/DOPC mixture while sonicating until the solution becomes clear. Plate the Caco2 cells into a poly-D-lysine coated 96-well plate (the “Cell Plate”) at 37° C., 5% CO2 overnight. Remove the growth media and pretreat the cells with the test compound in DMEMF12 (3:1) media (GIBCO 93-0152DK) containing 2% BSA (Sigma) for 30 minutes. Treat the cells with one test compound in 2% BSA DMEMF12 (3:1) media containing 40 μM of oleic acid and 800 μM of 8.9% HDG/DOPC for 4 hours. Trypsinize the cells with 50 μl of trypsin and add 50 μl of PBS. Immediately freeze the cells on dry ice and store at −20° C. for LC-MS analysis. Extract the cells with chloroform/methanol as follows transfer the cells to a 2 ml Plate; wash the Cell Plate with 200 μL methanol and then transfer the methanol wash to the 2 ml Plate; wash the Cell Plate again with 200 μL PBS and transfer the PBS wash to the 2 ml Plate. Add chloroform (400 μL) with internal standard (19.52 ng/mL) DAG (15:0,15:0 (Sigma)), D5-TAG (39.03 ng/mL) CDN (16,16,16) to the 2 mL Plate. […]

human MGAT-2 [2] = target: T1, human MGAT-2; test: MGAT-2 Inhibitory Assay (14C-oleoyl-CoA, Microscint E extraction, SF9 cell lysate); assay type: biochemical; parameters: made in house; host or cells: Insect SF9 cells (supernatant of homogenate, unpurified); settings: human MGAT-2 expressed in SF9 cells, 90 minutes, room temperature; read-out: IC50 in MGAT-2 in vitro assay
Experimental: The in vitro inhibitory activity of compounds against human MGAT-2 is evaluated in this assay. MGAT-2 transfers an oleoyl group to monooleoyl-glycerol (“MAG”) from oleoyl-CoA to form dioleoyl-glycerol (“DAG”) in the intestinal triglyceride resynthesis pathway. The assay takes advantage of Microscint E extraction, which extracts hydrophobic molecules selectively over hydrophilic ones to separate the ^14C-oleoyl-CoA from ^14C-DAG.
Insect SF9 cells express human MGAT-2. Prepare the cell lysate in 20 mM of NaCl with protease inhibitor (Roche Cat#11873580001). Homogenize the SF9 cells expressing human MGAT-2 at 15,000 rpm for 20×2 seconds (PT-3100 Polytrone). Centrifuge the homogenate at 1000 g for 10 minutes at 4° C. Collect the supernatant into a separate tube for protein quantification and activity testing. Purify the glycerol monooleate substrate (Spectrum Chemical, CAS#25496-72-4) chromatographically. Prepare the monoacylglyerol (MAG) substrate in phospholipid vescicles (dioleoyl phosphatidylcholine “DOPC”). Prepare the MAG/DOPC vesicles at 20 mM concentration of total lipids (MAG and DOPC). Prepare different molar ratios of MAG to total lipids for either compound screening (8.9%) or compound kinetic studies (2.6-40%). Mix the appropriate amount of purified MAG and DOPC (Avanti Polar Lipids #850375C) in a glass tube under N2 gas and then dry under vacuum for 30 minutes. […]

TAG absorption = test: Dog Oil Bolus Model (plasma TAG after olive oil bolus); assay type: in vivo; settings: male beagles, olive oil 5 ml/kg
Experimental: Inhibiting MGAT-2 found in the small intestine may be useful for treating hypertriglyceridemia caused by excessive fat intake. To assess the ability of the exemplified compounds to inhibit TAG absorption, twenty one male beagles (n=7 per treatment group) are enrolled for each study each dog selected to have a body weight between 9-13 kg. House the dogs in cages with a standard light cycle (12 hours light and 12 hours dark); at room temperature: 72±8° F.; and at 30%-70% relative humidity. Fast the dogs for 16 hours prior to the start of the study, then dose the fasted dogs with vehicle (1% HEC, 0.25%, Tween 80, Antifoam) or one of the test compounds. Bleed the dogs one hour after dosing, (0.5 ml from the jugular vein) for a time 0 sample. Dose the dogs with olive oil (Sigma Catalog#: O-1514, 5 ml/kg) immediately after collection of the time 0 sample. Collect samples into an EDTA tube on ice at 1.5, 2, 3, 5, 7, and 9 hrs post compound/vehicle dosing. […]
The analyte is the [M+NH4]+ ion of TAG 18:1 18:1 18:1, which has a mass of 902.8 m/z; the internal standard is D5 TAG 16:0 16:0 16:0, which has a mass of 829.8 m/z. […] The percent inhibition of plasma triglyceride is calculated as follows: the (oil bolus group mean of net TAG AUC−oil bolus group mean of net TAG AUC with compound treatment/oil bolus group mean of net TAG AUC)*100. […]

[3] = Caco-2 cells expressing human MGAT-2, 4 hours, read-out: Basal Triglyceride Caco 2 Relative IC50

T1 sequence (Q3SYC2 whole entry): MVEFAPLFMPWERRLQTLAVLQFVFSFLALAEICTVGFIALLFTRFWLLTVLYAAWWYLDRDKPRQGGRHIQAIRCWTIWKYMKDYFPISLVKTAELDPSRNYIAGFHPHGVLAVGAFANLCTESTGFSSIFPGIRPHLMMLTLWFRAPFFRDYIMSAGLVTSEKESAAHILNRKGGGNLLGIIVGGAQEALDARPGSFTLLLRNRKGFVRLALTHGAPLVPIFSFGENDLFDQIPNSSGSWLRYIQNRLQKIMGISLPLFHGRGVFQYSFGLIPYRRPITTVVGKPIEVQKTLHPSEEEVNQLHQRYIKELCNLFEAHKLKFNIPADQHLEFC

Row | pIC50 (human MGAT-2 [1]; [3]) | Compound | pIC50 (human MGAT-2 [1]; Basal Triglyceride Caco 2 Relative IC50, Caco-2 cells expressing human MGAT-2, 4 hours) | pIC50 (human MGAT-2 [2]) | inhibition of TAG absorption (percent inhibition of net plasma TAG AUC) (TAG absorption; dosed at 10 mg/kg) | inhibition of TAG absorption (TAG absorption; dosed at 30 mg/kg)
1 | – | CC(C)(C)C1CCN(Cc2ccc([C@H](NS(C)(=O)=O)C(F)(F)F)cc2)CC1.Cl [Example 1, N-[(1S)-1-[4-[(4-tert-Butylpiperidin-1-yl)methyl]phenyl]-2,2,2-trifluoro-ethyl]methanesulfonamide hydrochloride] | 7.24 | > 7.92 | 69% | completely inhibited
2 | 7.75 | CS(=O)(=O)N[C@@H](c1ccc(CN2CCC(c3ccc(F)cc3)CC2)cc1)C(F)(F)F [Example 4, N-[(1S)-2,2,2-trifluoro-1-(4-{[4-(4-fluorophenyl)piperidin-1-yl]methyl}phenyl)ethyl]methanesulfonamide hydrochloride] | – | – | – | –
3 | 7.19 | C[C@@H](NS(C)(=O)=O)c1ccc(CN2CCC(c3ccc(F)cc3)CC2)cc1 [Example 5, N-[(1R)-1-(4-{[4-(4-fluorophenyl)piperidin-1-yl]methyl}phenyl)ethyl]methanesulfonamide hydrochloride] | – | – | – | –

Row | Compound | pIC50 (human MGAT-2 [1]; [3]) | pIC50 (human MGAT-2 [1]; Basal Triglyceride Caco 2 Relative IC50, Caco-2 cells expressing human MGAT-2, 4 hours) | pIC50 (human MGAT-2 [2]) | inhibition of TAG absorption (percent inhibition of net plasma TAG AUC) (TAG absorption; dosed at 10 mg/kg) | inhibition of TAG absorption (TAG absorption; dosed at 30 mg/kg)
4 | CC(C)(C)C1CCN(Cc2ccc([C@H](NS(C)(=O)=O)C(F)(F)F)cc2)CC1 [Example 2, N-[(1S)-1-{4-[(4-tert-butylpiperidin-1-yl)methyl]phenyl}-2,2,2-trifluoroethyl]methanesulfonamide phosphoric acid] | 6.99 | – | – | – | –
